For 24 molecules, IC50 results are on record in patent US11427553B2, “Dihydrooxadiazinones” (Bayer Aktiengesellschaft, priority 2017, dated 2022).

In one assay the test system is SK-MEL-3 cells. Nature of the assay: Assay 1 cell proliferation measurement (CTG, 72 h), SK-MEL-3. It counts as cell-based, human. Particulars: Homo sapiens, SK-MEL3; Assay 1, 72 h, Cell Titer Glo; read-out: SK-MEL-3 IC50 [nM] (melanoma). The method, boiled down: (§1)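 CTG luminescence readout after 72 h compound exposure at 37 °C; 10-point 2.5-fold dilutions from 100 nM max final; DMSO 0.3% vehicle. IC50 from 4-parameter fit, normalised to 0 h plate (max inhibition) and DMSO (min inhibition).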

A further assay has as its target human full length PDE3A (Homo sapiens (Human), UniProt Q14432). As to the kind of experiment: Assay 4 PDE3A enzyme inhibition (3H-cAMP SPA). It counts as biochemical. Particulars: Sf9 cell extract. In short, it runs like this: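 In this SPA format, the 60-min room-temperature reaction used 0.025 μCi [8-3H]cAMP and diluted full-length PDE3A from Sf9 cells. Percentage activity was plotted against log compound concentration to derive IC50.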

The next assay deals with HeLa cells. Nature of the assay: Assay 1 cell proliferation measurement (CTG, 72 h), HeLa. Particulars: Homo sapiens, HeLa; Assay 1, 72 h, Cell Titer Glo; read-out: HeLa IC50 [nM] (Cervical cancer). It counts as cell-based, human. The method, boiled down:
as §1
A general note: In ATP-based viability assays light output follows the ATP content of the culture.

The target in a further assay is human full length PDE3B (Homo sapiens (Human), UniProt Q13370). Nature of the assay: Assay 5 PDE3B enzyme inhibition (3H-cAMP SPA). It counts as biochemical. Particulars: Sf9 cell extract. In short, it runs like this:
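Compounds in DMSO are mixed with diluted PDE3B extract from Sf9 cells, and reactions start on adding tritiated cAMP. After 60 min at room temperature, yttrium scintillation proximity beads terminate hydrolysis and signal is counted; IC50 values come from sigmoidal dose-response curves.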

Some results are limits rather than exact numbers.

Chain of human full length PDE3B (Q13370 whole entry): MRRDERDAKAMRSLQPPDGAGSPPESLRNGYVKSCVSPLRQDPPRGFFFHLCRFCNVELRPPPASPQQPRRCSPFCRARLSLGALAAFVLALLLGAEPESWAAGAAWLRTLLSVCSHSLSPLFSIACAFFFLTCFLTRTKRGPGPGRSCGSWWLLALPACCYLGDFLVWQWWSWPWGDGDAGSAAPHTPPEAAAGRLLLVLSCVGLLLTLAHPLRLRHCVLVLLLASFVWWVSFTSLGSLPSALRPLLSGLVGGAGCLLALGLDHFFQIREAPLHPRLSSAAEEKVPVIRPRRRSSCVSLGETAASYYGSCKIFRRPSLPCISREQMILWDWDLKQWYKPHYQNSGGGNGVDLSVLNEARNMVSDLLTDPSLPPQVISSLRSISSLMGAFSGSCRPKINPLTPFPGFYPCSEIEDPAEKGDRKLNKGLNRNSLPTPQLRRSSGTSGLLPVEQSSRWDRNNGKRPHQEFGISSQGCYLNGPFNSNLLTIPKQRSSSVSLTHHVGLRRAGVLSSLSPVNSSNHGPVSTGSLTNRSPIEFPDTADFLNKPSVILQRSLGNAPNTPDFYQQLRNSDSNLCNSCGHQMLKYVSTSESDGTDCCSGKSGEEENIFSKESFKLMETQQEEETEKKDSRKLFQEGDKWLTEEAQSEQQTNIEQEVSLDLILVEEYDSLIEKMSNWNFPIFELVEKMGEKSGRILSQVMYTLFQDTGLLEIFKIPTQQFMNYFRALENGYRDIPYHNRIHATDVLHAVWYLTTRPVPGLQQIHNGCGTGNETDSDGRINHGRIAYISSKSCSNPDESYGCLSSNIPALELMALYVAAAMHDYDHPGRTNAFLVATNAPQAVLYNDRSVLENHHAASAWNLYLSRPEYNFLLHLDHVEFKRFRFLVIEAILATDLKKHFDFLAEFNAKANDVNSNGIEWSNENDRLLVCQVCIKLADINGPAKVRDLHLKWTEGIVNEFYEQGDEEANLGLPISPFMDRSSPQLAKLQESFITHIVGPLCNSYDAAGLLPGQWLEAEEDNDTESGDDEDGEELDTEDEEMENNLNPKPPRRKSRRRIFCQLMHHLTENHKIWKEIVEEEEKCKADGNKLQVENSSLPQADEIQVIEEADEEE
Chain of human full length PDE3A (Q14432 whole entry): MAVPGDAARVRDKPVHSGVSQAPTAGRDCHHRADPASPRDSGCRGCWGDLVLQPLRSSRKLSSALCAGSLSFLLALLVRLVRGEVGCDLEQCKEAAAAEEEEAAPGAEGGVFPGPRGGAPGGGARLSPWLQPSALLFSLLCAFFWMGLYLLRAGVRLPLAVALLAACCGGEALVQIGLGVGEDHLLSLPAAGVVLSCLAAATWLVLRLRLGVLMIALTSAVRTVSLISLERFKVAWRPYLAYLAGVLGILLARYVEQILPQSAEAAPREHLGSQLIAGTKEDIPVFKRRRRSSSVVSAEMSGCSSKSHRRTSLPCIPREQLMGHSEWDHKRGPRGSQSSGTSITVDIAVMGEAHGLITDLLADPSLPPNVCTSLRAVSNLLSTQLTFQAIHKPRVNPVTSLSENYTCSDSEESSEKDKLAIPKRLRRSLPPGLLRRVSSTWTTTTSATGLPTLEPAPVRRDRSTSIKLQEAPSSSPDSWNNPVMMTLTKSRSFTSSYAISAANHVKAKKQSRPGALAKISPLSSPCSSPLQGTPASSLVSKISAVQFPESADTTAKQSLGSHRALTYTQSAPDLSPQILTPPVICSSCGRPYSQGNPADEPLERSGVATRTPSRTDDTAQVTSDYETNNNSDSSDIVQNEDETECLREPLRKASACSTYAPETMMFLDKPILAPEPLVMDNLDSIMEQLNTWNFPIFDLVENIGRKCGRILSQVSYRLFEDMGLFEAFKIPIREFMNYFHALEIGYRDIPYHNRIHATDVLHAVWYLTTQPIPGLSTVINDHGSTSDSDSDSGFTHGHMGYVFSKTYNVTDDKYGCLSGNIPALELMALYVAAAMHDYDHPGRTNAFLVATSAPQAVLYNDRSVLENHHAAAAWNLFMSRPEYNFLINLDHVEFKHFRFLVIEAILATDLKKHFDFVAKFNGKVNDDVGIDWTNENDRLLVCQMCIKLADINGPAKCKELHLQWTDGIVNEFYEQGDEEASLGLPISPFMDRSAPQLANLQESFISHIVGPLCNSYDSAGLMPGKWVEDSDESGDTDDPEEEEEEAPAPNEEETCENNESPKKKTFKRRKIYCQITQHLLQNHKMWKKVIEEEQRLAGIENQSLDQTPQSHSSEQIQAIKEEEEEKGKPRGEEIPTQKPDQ

Consider `CC(C)(O)c1ccc(C2=NNC(=O)OC2)cc1C(F)(F)F` [Example 278, 5-[4-(2-Hydroxypropan-2-yl)-3-(trifluoromethyl)phenyl]-3,6-dihydro-2H-1,3,4-oxadiazin-2-one], for which the IC50 (as a rule, the point on the concentration scale where inhibition reaches its midpoint) with SK-MEL-3 cells was 80 nM; on human full length PDE3A it was more than 1000 nM; in the assay on HeLa cells, 58 nM; at human full length PDE3B, more than 1000 nM.

For `Cc1ncccc1-c1ccc(C2=NNC(=O)OC2)cc1F` [Example 96, 5-[3-Fluoro-4-(2-methylpyridin-3-yl)phenyl]-3,6-dihydro-2H-1,3,4-oxadiazin-2-one], the IC50 in the assay on SK-MEL-3 cells was determined as 40 nM; against human full length PDE3A, 50 nM; in the assay on HeLa cells it was 18 nM; against human full length PDE3B it was 110 nM.

`CCN(C)c1ccc(C2=NNC(=O)OC2)cc1C(F)(F)F` [Example 223, 5-{4-[Ethyl(methyl)amino]-3-(trifluoromethyl)phenyl}-3,6-dihydro-2H-1,3,4-oxadiazin-2-one]: the IC50 was 9 nM in the assay with SK-MEL-3 cells, 140 nM on human full length PDE3A, 6 nM in the assay with HeLa cells and 100 nM against human full length PDE3B.

In the case of `NC1CCC(Nc2ccc(C3=NNC(=O)OC3)cc2C(F)(F)F)CC1` (mixture of isomers) [Example 320, 5-[4-{[4-aminocyclohexyl]amino}-3-(trifluoromethyl)phenyl]-3,6-dihydro-2H-1,3,4-oxadiazin-2-one (mixture of stereoisomers)], the half-maximal inhibitory concentration (IC50) in the assay with SK-MEL-3 cells was more than 100 nM; on human full length PDE3A, 76 nM; with HeLa cells it was more than 100 nM; on human full length PDE3B, 220 nM.

With `CC(C)=Cc1ccc(C2=NNC(=O)OC2)cc1C(F)(F)F` [Example 63, 5-[4-(2-Methylprop-1-en-1-yl)-3-(trifluoromethyl)phenyl]-3,6-dihydro-2H-1,3,4-oxadiazin-2-one], the IC50 in the assay on SK-MEL-3 cells was determined as 3 nM; on human full length PDE3A, 31 nM; with HeLa cells, 1 nM; against human full length PDE3B, 33 nM.

As for `O=C1NN=C(c2ccc(NCC3CCCO3)c(C(F)(F)F)c2)CO1` (racemic) [Example 215, (rac)-5-[4-({[Oxolan-2-yl]methyl}amino)-3-(trifluoromethyl)phenyl]-3,6-dihydro-2H-1,3,4-oxadiazin-2-one], the IC50 was determined as 3 nM in the assay with SK-MEL-3 cells, 66 nM against human full length PDE3A, 2 nM in the assay on HeLa cells and 100 nM against human full length PDE3B.

On to `O=C1NN=C(c2ccc(NC3CCCC3)c(C(F)(F)F)c2)CO1` [Example 136, 5-[4-(Cyclopentylamino)-3-(trifluoromethyl)phenyl]-3,6-dihydro-2H-1,3,4-oxadiazin-2-one], for which the IC50 in the assay on SK-MEL-3 cells worked out at 1 nM; against human full length PDE3A, 32 nM; in the assay on HeLa cells, 0.3 nM; at human full length PDE3B it was 27 nM.

Consider `C[C@H](O)CNc1ccc(C2=NNC(=O)OC2)cc1C(F)(F)F` [Example 218, 5-[4-{[(2S)-2-Hydroxypropyl]amino}-3-(trifluoromethyl)phenyl]-3,6-dihydro-2H-1,3,4-oxadiazin-2-one], for which the IC50 in the assay with SK-MEL-3 cells came out at 4 nM; against human full length PDE3A, 35 nM; with HeLa cells, 3 nM; on human full length PDE3B, 89 nM.

As to `O=C1NN=C(c2ccc(-c3ccc(Cl)cn3)c(C(F)(F)F)c2)CO1` [Example 159, 5-[4-(5-Chloropyridin-2-yl)-3-(trifluoromethyl)phenyl]-3,6-dihydro-2H-1,3,4-oxadiazin-2-one], the IC50 with SK-MEL-3 cells is 22 nM; at human full length PDE3A it was more than 1000 nM; in the assay with HeLa cells it was 11 nM; against human full length PDE3B, more than 1000 nM.

Take `Cc1noc(C)c1-c1ccc(C2=NNC(=O)OC2)cc1C(F)(F)F` [Example 129, 5-[4-(3,5-Dimethyl-1,2-oxazol-4-yl)-3-(trifluoromethyl)phenyl]-3,6-dihydro-2H-1,3,4-oxadiazin-2-one]: the half-inhibitory concentration (IC50) is more than 100 nM with SK-MEL-3 cells, 970 nM at human full length PDE3A, more than 100 nM in the assay with HeLa cells and 770 nM on human full length PDE3B.

Take `O=C1NN=C(c2ccc(-c3ccc4cc[nH]c4c3)c(C(F)(F)F)c2)CO1` [Example 62, 5-[4-(1H-Indol-6-yl)-3-(trifluoromethyl)phenyl]-3,6-dihydro-2H-1,3,4-oxadiazin-2-one]: the IC50 in the assay on SK-MEL-3 cells was determined as 14 nM; against human full length PDE3A, 85 nM; with HeLa cells, 6 nM; against human full length PDE3B it was 180 nM.

Consider `O=C1NN=C(c2ccc(-c3ccccn3)c(C(F)(F)F)c2)CO1` [Example 160, 5-[4-(Pyridin-2-yl)-3-(trifluoromethyl)phenyl]-3,6-dihydro-2H-1,3,4-oxadiazin-2-one], for which the half-maximal inhibitory concentration (IC50) in the assay with SK-MEL-3 cells was 47 nM; against human full length PDE3A, more than 1000 nM; in the assay with HeLa cells, 27 nM; against human full length PDE3B, more than 1000 nM.

Regarding `Cc1nc2cc(-c3ccc(C4=NNC(=O)OC4)cc3C(F)(F)F)ccc2[nH]1` [Example 326, 5-[4-(2-methyl-1H-benzimidazol-5-yl)-3-(trifluoromethyl)phenyl]-3,6-dihydro-2H-1,3,4-oxadiazin-2-one], the concentration for half-maximal inhibition (IC50) with SK-MEL-3 cells was more than 100 nM; against human full length PDE3A, 17 nM; in the assay with HeLa cells, more than 100 nM; at human full length PDE3B it was 30 nM.

As for `Cc1ccc(-c2ccc(C3=NNC(=O)OC3)cc2F)cc1F` [Example 113, 5-(2,3′-Difluoro-4′-methyl[1,1′-biphenyl]-4-yl)-3,6-dihydro-2H-1,3,4-oxadiazin-2-one], the IC50 with SK-MEL-3 cells was 6 nM; against human full length PDE3A, 210 nM; with HeLa cells, 2 nM; at human full length PDE3B, 215 nM.

Consider `O=C1NN=C(c2ccc(C3=CCCC3)c(C(F)F)c2)CO1` [Example 201, 5-[4-(Cyclopent-1-en-1-yl)-3-(difluoromethyl)phenyl]-3,6-dihydro-2H-1,3,4-oxadiazin-2-one], for which the IC50 was 9 nM in the assay with SK-MEL-3 cells, 86 nM against human full length PDE3A, 3 nM with HeLa cells and 77 nM at human full length PDE3B.

Regarding `O=C1NN=C(c2ccc(-c3ccc(C(F)(F)F)cc3)c(C(F)(F)F)c2)CO1` [Example 51, 5-[2,4′-Bis(trifluoromethyl)biphenyl-4-yl]-3,6-dihydro-2H-1,3,4-oxadiazin-2-one], the IC50 in the assay with SK-MEL-3 cells is 49 nM; against human full length PDE3A, more than 1000 nM; in the assay with HeLa cells, 30 nM; at human full length PDE3B it was more than 1000 nM.

As to `O=C1NN=C(c2ccc(C3=CCCOC3)c(C(F)(F)F)c2)CO1` [Example 142, 5-[4-(5,6-dihydro-2H-pyran-3-yl)-3-(trifluoromethyl)phenyl]-3,6-dihydro-2H-1,3,4-oxadiazin-2-one], the IC50 in the assay on SK-MEL-3 cells amounted to 4 nM; against human full length PDE3A, 25 nM; with HeLa cells it was 3 nM; at human full length PDE3B, 47 nM.

Regarding `Cc1cccc(-c2ccc(C3=NNC(=O)OC3)cc2F)c1` [Example 87, 5-(2-Fluoro-3′-methylbiphenyl-4-yl)-3,6-dihydro-2H-1,3,4-oxadiazin-2-one], the IC50 in the assay on SK-MEL-3 cells stood at 32 nM; against human full length PDE3A, 81 nM; in the assay with HeLa cells it was 10 nM; on human full length PDE3B it was 230 nM.

For the molecule `COc1ccccc1-c1ccc(C2=NNC(=O)OC2)cc1F` [Example 116, 5-(2-Fluoro-2′-methoxy[1,1′-biphenyl]-4-yl)-3,6-dihydro-2H-1,3,4-oxadiazin-2-one], the concentration for half-maximal inhibition (IC50) in the assay with SK-MEL-3 cells came to 35 nM; at human full length PDE3A, 79 nM; in the assay with HeLa cells, 16 nM; against human full length PDE3B, 76 nM.

On to `O=C1NN=C(c2ccc(F)c(C(F)(F)F)c2)CO1` [Intermediate 66, 5-[4-Fluoro-3-(trifluoromethyl)phenyl]-3,6-dihydro-2H-1,3,4-oxadiazin-2-one], for which the IC50 in the assay with SK-MEL-3 cells was more than 100 nM; at human full length PDE3A, more than 1000 nM; in the assay with HeLa cells it was 56 nM; against human full length PDE3B it was more than 1000 nM.

As for `O=C1NN=C(c2ccc(N3CCC3)c(C(F)(F)F)c2)CO1` [Example 72, 5-[4-(Azetidin-1-yl)-3-(trifluoromethyl)phenyl]-3,6-dihydro-2H-1,3,4-oxadiazin-2-one], the IC50 is 5 nM in the assay on SK-MEL-3 cells, 74 nM on human full length PDE3A, 2 nM in the assay on HeLa cells and 180 nM against human full length PDE3B.

For `O=C1NN=C(c2ccc(C3=CC4CCC3C4)c(C(F)(F)F)c2)CO1` (racemic) [Example 154, (rac)-5-[4-(Bicyclo[2.2.1]hept-2-en-2-yl)-3-(trifluoromethyl)phenyl]-3,6-dihydro-2H-1,3,4-oxadiazin-2-one], the IC50 in the assay with SK-MEL-3 cells is 4 nM; against human full length PDE3A, 70 nM; with HeLa cells it was 2 nM; on human full length PDE3B, 120 nM.

As for `Cc1cc(C2=NNC(=O)OC2)ccc1-c1cccc(F)c1` [Example 15, 5-(3′-Fluoro-2-methylbiphenyl-4-yl)-3,6-dihydro-2H-1,3,4-oxadiazin-2-one], the IC50 with SK-MEL-3 cells worked out at 16 nM; against human full length PDE3A it was 110 nM; in the assay on HeLa cells, 8 nM; at human full length PDE3B, 110 nM.

`O=C1NN=C(c2ccc(-c3cccc(F)c3)c(F)c2)CO1` [Example 117, 5-(2,3′-Difluoro[1,1′-biphenyl]-4-yl)-3,6-dihydro-2H-1,3,4-oxadiazin-2-one]: the IC50 in the assay with SK-MEL-3 cells amounted to 9 nM; against human full length PDE3A it was 77 nM; in the assay on HeLa cells, 5 nM; against human full length PDE3B, 95 nM.
